Assay results published in patent publication US4900815A, “Sulfated polysaccharide DS4152” (Daiichi Seiyaku Co., Ltd., priority 1986, dated 1990).
Values joined by “and” are separate entries in the source; they are usually repeats but may differ in a detail not shown here. Equal entries are not always repeated. Structures can show the parent of a compound that is named as a salt.

Experiments:
[1] = system: angiogenesis of the chick CAM; test: CAM angiogenesis inhibition, various steroids alone or with DS4152; type: in vivo; conditions: for degree of increase: ID50 alone vs. in the presence of 10 ng of DS4152; for ID50, used in combination with DS4152: in the presence of 10 ng of DS4152; for ID50, alone: steroid alone
[2] = system: CAM angiogenesis; test: CAM Angiogenesis Inhibition Test (Direct Method), antiestrogens with or without DS4152; type: in vivo, chick
Protocol: (§1) Using chick embryos, a test was carried out in accordance with the following method, which was a partial modification of the Taylor-Folkman'smethod Nature, 297, 307 (1982)].
(§2) Either DS4152 or heparin dissolved in physiological saline was added to the CAM of each 4-5 day old fertilized chicken 1 egg (species: NORIN CROSS) and then the eggs were incubated at 37° C.
(§3) Two days after the addition of the agent, the degree of the CAM vascularization was compared with that of a control to which physiological saline was only added. The 50% vascularization inhibition dose (ID50) was calculated by the probit method.
(§4) A test was conducted in the same manner as in Example 2. Antiestrogens were separately dissolved or suspended in physiological saline and were added either alone or together with DS4152. The eggs with the agents were incubated at 37° C. Two days after the addition of the agents, the degrees of development of CAM vessels were individually compared with that of a control to which physiological saline was only added.

[3] = system: vascularization in chorioallantoic membrane (CAM) of chick embryo, rabbit cornea and hamster cheek pouches; conditions: cited from earlier work
[4] = system: CAM angiogenesis; test: CAM Angiogenesis Inhibition Test (Direct Method), DS4152 and heparins with tamoxifen citrate; type: in vivo, chick; conditions: for 50% vascularization inhibition dose: with tamoxifen citrate 1 μg
Protocol: as §1, §2, §3, §4

[5] = system: CAM vascularization; test: Antiangiogenic Effects (Ex Vivo) of tamoxifen with or without DS4152; design: species or system chick (blood from mice); conditions: for Inhibition rate of angiogenesis: tamoxifen citrate 100 mg/kg s.c.
Protocol: (§5) Male ICR mice were orally administered with a solution of DS4152 dissolved in physiological saline. A saline suspension of a steroid was administered orally or intramuscularly, either in combination with DS4152 or alone. Blood samples collected after 6 hours were prevented from coagulation with a 0.313% aqueous solution of sodium citrate. Each blood sample was added to the 5 day CAM in the same manner as in the direct method. The inhibitory effects were judged after two days. Results were expressed by inhibition ratios (%) of CAM vascularization of each group to that of control group with a blood sample collected from the mice with saline. (Table 11).
In the same manner as in Example 8, antiangiogenic effects of tamoxifen were examined with or without DS4152.

[6] = system: mouse mammary carcinoma MM46; test: Antitumor Test, MM46, tamoxifen citrate with DS4152; type: in vivo, mouse (male C3H/He)
Protocol: (§6) C3H/He male mice (5 weeks old) were each inoculated subcutaneously with 4×10^6 cells of mouse mammary carcinoma MM46. Mice were randomized after measuring the diameters of the resultant tumors on the 7th day. In addition, male ICR mice (5 weeks old) were each inoculated subcutaneously with 1×10^6 cells of Sarcoma 180 (S180). On the 3rd days, the mice were randomized. A saline suspension of tamoxifen citrate was administered once a day for 4 days to the MM46-bearing mice on the 7th day after inoculation and to the S180-bearing mice on the 3rd day after inoculation. DS4152 and heparins were individually dissolved in physiological saline and administered either orally or subcutaneously once a day for 4 days at a dose of 30 mg/kg/day or 300 mg/kg/day. On the 5th day after the beginning of the administration, the animals were sacrificed. The tumor weights were compared with those of the control mice administered only with physiological saline (Table 15).

[7] = system: Sarcoma 180 (S180); test: Antitumor Test, S180, tamoxifen citrate with DS4152 or heparins; type: in vivo, mouse (male ICR)
Protocol: as §6

[8] = system: CAM vascularization; test: Antiangiogenic Effects (Ex Vivo) of steroids with or without DS4152; design: species or system chick (blood from male ICR mice)
Protocol: as §5

[9] = system: breast cancer; conditions: Oncologia, 10, 72 (1984); cited from earlier work
[10] = system: CAM vascularization of chick embryos; test: CAM Angiogenesis Inhibition Test (Direct Method); type: in vivo, chick (NORIN CROSS); conditions: even at 100 μg
Protocol: as §1, §2, §3

[11] = antiestrogen 1 μg, DS4152 0.01 μg
[12] = antiestrogen 10 μg, DS4152 0 μg
[13] = antiestrogen 10 μg, DS4152 0.01 μg
[14] = tamoxifen citrate 100 mg/kg s.c. alone
[15] = 300 mg/kg oral + tamoxifen citrate 100 mg/kg s.c.
[16] = 300 mg/kg oral + tamoxifen citrate 100 mg/kg s.c., p < 0.05

Compound: CC(=O)O[C@]1(C(C)=O)CC[C@H]2[C@@H]3C[C@H](C)C4=CC(=O)CC[C@]4(C)[C@H]3CC[C@@]21C [Medroxyprogesterone acetate]
- degree of increase [1]: 2.7 times
- ID50, used in combination with DS4152 [1]: 0.42 μg/embryo
- ID50, alone [1]: 1.12 μg/embryo

Compound: COc1ccc2c(c1)CCC(c1ccccc1)=C2c1ccc(OCCN2CCCC2)cc1 [Nafoxidine chloride]
- percent inhibition of CAM vascularization ([2]; antiestrogen 1 μg, DS4152 0 μg): -4.3%
- percent inhibition of CAM vascularization [2, 11]: 23.1%
- percent inhibition of CAM vascularization [2, 12]: -3.2%
- percent inhibition of CAM vascularization [2, 13]: 31.6%

Compound: C[C@]12C=CC(=O)C=C1CC[C@@H]1[C@@H]2[C@@H](O)C[C@@]2(C)[C@H]1CC[C@]2(O)C(=O)CO [Prednisolone]
- degree of increase [1]: 16.3 times
- ID50, used in combination with DS4152 [1]: 0.08 μg/embryo
- ID50, alone [1]: 1.30 μg/embryo
- suppression of experimentally induced vascularization [3]: effective

Compound: CC(=O)[C@H]1CC[C@H]2[C@@H]3CCC4=CC(=O)CC[C@]4(C)[C@H]3CC[C@]12C [Progesterone]
- degree of increase [1]: 2.1 times
- ID50, used in combination with DS4152 [1]: 0.49 μg/embryo
- ID50, alone [1]: 1.02 μg/embryo

Compound: CC/C(=C(\c1ccccc1)c1ccc(OCCN(C)C)cc1)c1ccccc1 [Tamoxifen citrate]
- percent inhibition of CAM vascularization ([2]; antiestrogen 1 μg, DS4152 0 μg): -0.4%
- percent inhibition of CAM vascularization [2, 11]: 56.2%
- percent inhibition of CAM vascularization [2, 12]: 2.9%
- percent inhibition of CAM vascularization [2, 13]: 70.5%
- effect on vascularization ([4]; 1 μg, alone): too little to affect the vascularization
- Inhibition rate of angiogenesis ([5]; DS4152 0): -6.1% and -11.0%
- Inhibition rate of angiogenesis ([5]; DS4152 30 mg/kg oral): 40.0%
- Inhibition rate of angiogenesis ([5]; DS4152 30 mg/kg subcutaneous): 61.2%
- influence on vascularization of CAM ([5]; tamoxifen citrate only): no influence
- inhibition of CAM vascularization ([5]; tamoxifen with subcutaneous or oral DS4152 (30 mg/kg)): inhibited markedly the CAM vascularization
- effect on growth of mammary carcinoma MM46 ([6]; single administration (alone)): inhibited
- T/C [6, 14]: 6.6%
- Tumor weight, mean ± S.D. ([6]; tamoxifen citrate 100 mg/kg s.c. alone, p < 0.05): 273 ± 27 mg
- effect on growth of sarcoma S180 ([7]; administered alone): did not affect the growth
- T/C [7, 14]: 97%
- Tumor weight, mean ± S.D. [7, 14]: 298 ± 31 mg

Compound: C[C@]12CC[C@@H](O)C[C@H]1CC[C@@H]1[C@@H]2CC[C@@]2(C)[C@H]1CC[C@]2(O)C(=O)CO [Tetrahydro S]
- degree of increase [1]: 100.0 times
- ID50, used in combination with DS4152 [1]: 0.01 μg/embryo
- ID50, alone [1]: 1.00 μg/embryo
- Inhibition rate of angiogenesis ([8]; steroid p.o. 1 mg/kg, DS4152 0): -2.6%
- Inhibition rate of angiogenesis ([8]; steroid p.o. 1 mg/kg, DS4152 30 mg/kg p.o.): 71.7%
- Inhibition rate of angiogenesis ([8]; steroid p.o. 5 mg/kg, DS4152 0): -17.3%
- Inhibition rate of angiogenesis ([8]; steroid p.o. 5 mg/kg, DS4152 30 mg/kg p.o.): 80.7%

Compound: C[C@@H]1C[C@H]2[C@@H]3CCC4=CC(=O)C=C[C@]4(C)[C@@]3(F)[C@@H](O)C[C@]2(C)[C@@]1(O)C(=O)CO [dexamethasone]
- suppression of experimentally induced vascularization [3]: effective

Compound: CCC(=O)O[C@H]1CC[C@H]2[C@@H]3CCC4=CC(=O)CC[C@]4(C)[C@H]3CC[C@]12C [testosterone propionate]
- effectivity (anti-breast cancer) [9]: 20-30%

Compound: heparin
- effect on CAM vascularization [10]: no effect
- 50% vascularization inhibition dose [4]: 3.43 µg
- T/C [7, 15]: 66%
- Tumor weight, mean ± S.D. [7, 16]: 203 ± 13 mg

Compound: low molecular weight heparin
- 50% vascularization inhibition dose [4]: 1.37 µg
- T/C [7, 15]: 66%
- Tumor weight, mean ± S.D. [7, 16]: 202 ± 22 mg
